The text below walks through data of patent publication US7388072B2, “MAGE peptides presented by HLA class II molecules” (priority 2001, dated 2008).

SMILES strings stand for the structures.

One experiment addresses T1, DR3 (Homo sapiens, UniProt P01903+P01911, A100K/A102G/A103R/A169T/F55Y/I96L/K41T/L162R/M171V/P40S/Q125H/Q178H/Q39Y/R42S/S66N/T106N/T262R/W38E/Y61H).
T1 construct: endogenous in cells
Kind of experiment: HLA-DR peptide binding assay (competition), DR3.

For a further experiment, the system named is CD4+ T cell clone 2. The experiment can be described thus: Recognition assay with peptides: IFN-γ production (ELISA) by CD4+ T cell clone 2 co-cultured with peptide-pulsed EBV-B cells. It counts as cell-based, human. The conditions noted are these: for IFN-γ production clone 2: 2 h with 5 μg/ml peptide, overnight co-culture. Here is the method:
Recognition assays with peptides. Peptides were synthesized on solid phase using Fmoc for transient NH2-terminal protection and were characterized using mass spectrometry. All peptides were >90% pure, as indicated by analytical HPLC. Lyophilized peptides were dissolved at 5 mg/ml in 10 mM acetic acid and 10% DMSO, and stored at −20° C. EBV-B cells were distributed at 20,000 cells per round-bottomed microwell and incubated for 2 h at 37° C. in the presence of the different peptides, the indicated concentrations representing their concentrations during the incubation step. CD4^+ T lymphocytes (5,000) were added in 100 μl of complete IMDM (Gibco BRL) medium supplemented with IL-2 (25 U/ml). Supernatants were harvested after 20 h of co-culture and IFN-γ production was measured by ELISA. The peptides used in FIG. 6 correspond to the MAGE-1260-275, MAGE-2267-282, MAGE-3267-282, MAGE-4268-283, MAGE-6267-282, MAGE-10292-307, MAGE-11270-285, and MAGE-12267-282 protein sequences.
We tested for recognition by each of the three clones autologous EBV-B cells pulsed with a set of peptides of 16 amino acids, overlapping by 12 residues and covering the complete MAGE-3 sequence. DDHK2 EBV-B cells were distributed in microwells (2×10^4 cells) and incubated for 2 h with the indicated concentrations of peptides. 5×10^3 cells from each autologous CD4^+ T cell clone were added and the presence of IFN-γ in the supernatant was measured by ELISA after overnight co-culture. The results shown in FIG. 6 represent the average of triplicate co-cultures.

Turning to `CC(C)C[C@H](NC(=O)[C@H](C)NC(=O)[C@H](CCCNC(=N)N)NC(=O)[C@@H]1CCCN1C(=O)CNC(=O)[C@H](Cc1c[nH]c2ccccc12)NC(=O)[C@H](CC(C)C)NC(=O)[C@H](Cc1ccccc1)NC(=O)[C@H](CCC(=O)O)NC(=O)[C@H](Cc1ccc(O)cc1)NC(=O)[C@H](CS)NC(=O)[C@H](C)N)C(=O)N[C@H](C(=O)N[C@@H](CCC(=O)O)C(=O)N[C@H](C(=O)N[C@@H](CO)C(=O)O)[C@@H](C)O)C(C)C`, the “binding to purified HLA-DR molecules (in words)” value at DR3 (competition assay) is reported as “No binding was observed”. The half-inhibitory concentration (IC50) on DR3 (competition with biotinylated MT 2-16 100 nM, pH 4.5, read-out: IC50 (nM) of MAGE-3267-282) was greater than 10000 nM. Besides, the “IFN-γ production clone 2” value in the experiment on CD4+ T cell clone 2 (EBV-B cell line DDHK2 (DR1 DR15 DR51, DR1 positive)) is >4,000 pg/ml; in the experiment with CD4+ T cell clone 2 (EBV-B cell line LB650 (DR7 DR15 DR51 DR53, DR1 negative)), 160 pg/mL; in the experiment on CD4+ T cell clone 2 (EBV-B cell line LB831 (DR1 DR7 DR53, DR1 positive)) it was 1,418 pg/ml; in the experiment with CD4+ T cell clone 2 (EBV-B cell line LB1158 (DR1 DR13 DR52, DR1 positive)) it was 2,029 pg/ml; with CD4+ T cell clone 2 (EBV-B cell line LB1856 (DR15, DR1 negative)), 187 pg/mL; in the experiment with CD4+ T cell clone 2 (EBV-B cell line LB1870 (DR15 DR53 DR7, DR1 negative)), 104 pg/mL. For the same compound, the “IFN-γ production clone 2” value in the experiment on CD4+ T cell clone 2 (EBV-B cell line LB2095 (DR13 DR15 DR51 DR52, DR1 negative)) is 172 pg/mL; in the experiment with CD4+ T cell clone 2 (EBV-B cell line LB2138 (DR1 DR13, DR1 positive)) it was 2,046 pg/ml. In addition, the “production of IFN-γ by clone 2 stimulated by peptide-pulsed autologous EBV-B cells” value in the experiment on CD4+ T cell clone 2 (FIG. 6, set of 16 amino acid peptides overlapping by 12 residues) is on record as “stimulated the production of IFN-γ”. Further, the “recognition by clone 2 of peptide-loaded autologous EBV-B cells in the presence of anti-HLA-DR, -DP or -DQ antibodies” value in the experiment on CD4+ T cell clone 2 (data not shown) was “abolished by an anti-HLA-DR antibody, but not by antibodies against HLA-DP or HLA-DQ”.

As usually defined, the IC50 is the concentration needed to halve the response being measured.
